How the values were obtained:
[1] = Pharmacokinetic study in rats after single intravenous administration (HPLC-UV plasma determination, two-compartment model, 3p97 software); format: in vivo, Wistar albino rats; design: AUC / CL(s): unit not given here; settings: for A / B / CL(s) / K 10 (first order elimination from compartment 1) / K 12 (first order transfer from compartment 1 to compartment 2) / K 21 (first order transfer from compartment 2 to compartment 1) / V d / t 1/2a (distribution half-life) / t 1/2β (elimination half-life) / β: mean ± SD, n = 6
Description: Laboratory bred adult Wistar albino rats (200–250 g), which were supplied by the Animal Research Center at Shanxi Medical University (Taiyuan, Shanxi Province, China), were housed at 25 ± 2°C in a well-ventilated animal house under 12 : 12 h light dark cycle. The animals drank sterilized drinking water, and standard chow diet was supplied ad libitum to each cage. The animal experiments were performed in accordance with the ARVO Statement for the Use of Animals in Ophthalmic and Vision Research and were approved by the Animal Ethics Committee of Shanxi Medical University.
HPLC analysis was carried out using a Waters 2695 HPLC system (Waters Associates, Milford, MA) which consisted of a photodiode array detector, an autosampler, and a degasser. The apparatus was interfaced to a DELL PC compatible computer using Empower Pro software for data acquisition. The sensitivity was 0.2 AUFS. The autosampler was cooled to 10°C. The column was maintained at room temperature. Chromatographic separation of DPDFT and the I.S. was achieved on a Diamonsil C18 column (250 mm × 4.6 mm, 5 μm) from Dikma Technologies (Beijing, China) protected by a SHIMADZU LC guard column at 25°C. The mobile phase for HPLC analysis consisted of phosphoric acid in water (solvent A)/methanol (solvent B) (30 : 70, V/V, pH 3.0) with a flow rate of 0.8 mL·min^−1. A sample volume of 20 μL was injected. Prior to use, the mobile phase was filtered through a 0.45 μm hydrophilic membrane filter. The photodiode array detector was set at a wavelength of 228 nm at room temperature. Under the chromatographic condition mentioned above, DPDFT and the I.S. acetanilide could be separated completely in the chromatograms (R > 1.5), and there was no endogenous interference with the chromatographic peak of DPDFT and the I.S.acetanilide. Besides, the retention time of acetanilide (t R = 15.67 min) was very suitable as the I.S. compared to that of DPDFT (t R = 8.34 min).
Blood samples collected from rat blood plasma were immediately transferred to 1.5 mL heparinized microcentrifuge tubes from fossa orbitalis of rats, and then processed for plasma by centrifugation. The supernatant plasma (0.2 mL) was then vortex-mixed with methanol (0.4 mL) containing acetanilide (0.2 mL, 50.0 μg·mL^−1) as internal standard (I.S.) for 30 s. After vortex-mixing, the mixture was centrifuged at 13000 rpm for 10 min 4°C to separate precipitated proteins. The supernatant solution of methanol layer was filtered through a 0.45 μm membrane filter. Twenty microliters of filtrate were injected into the chromatography. The same sample processing was also applied to the recovery and to the precision study in plasma. All harvested samples stored at −4°C were brought to room temperature before use and analyzed within one week.
To evaluate the suitability of the assay for pharmacokinetic studies, 7.5, 15, and 30 mg·kg^−1 of DPDFT were intravenously administered to rats (half males and half females, resp.). Six animals were used in each dosage by direct injection into a lateral tail vein, with a duration of infusion less than 1 min. Heparinized blood samples (0.5 mL) were collected at 0, 1, 3, 5, 10, 30, 60, and 120 min after injection. […]. After each sampling, the removed volume of blood was supplemented with an equal volume of sodium chloride. The blood samples were immediately centrifuged and the resulting plasma was prepared according to the procedure given for the calibrators. Pharmacokinetic calculations were performed using the observed data. […] All values obtained were expressed in mean ± standard deviation.

[2] = Stability of DPDFT in rat plasma QC samples (freeze/thaw, storage, autosampler); format: in vitro ADME
Description: Quality control (QC) samples were used to determine the accuracy and precision of method and were independently prepared at low (0.8 μg·mL^−1), medium (4 μg·mL^−1), and high (20 μg·mL^−1) concentrations. To evaluate the accuracy and precision, we used at least five QC samples of three different concentrations of DPDFT. The intraday and interday accuracies were expressed as the percentage difference between the measured concentration and the nominal concentration in rat plasma. The intraday precision and accuracy were calculated using replicate (n = 6) determinations for each concentration of the spiked plasma sample during a single analytical run. The interassay precision and accuracy were calculated using replicate (n = 6) determinations of each concentration made on three separate days. The variability of determination was expressed as the relative standard deviation (RSD) which should be ≤15%, covering the range of actual experimental concentrations.
The stability of DPDFT in rat plasma was assessed by analyzing replicates (n = 6) of QC samples at concentrations of 0.8, 4, 20 μg·mL^−1, respectively. The investigation covered the expected conditions during all of the sample storage and process periods, which included the stability data from freeze/thaw cycle and long-term stability tests. The concentrations obtained from stability studies were compared with the freshly prepared QC samples, and the percentage concentration deviation was calculated. In each freeze–thaw cycle, the samples were frozen and stored at −20°C for 10 days, then thawed at room temperature. The stability of the fresh plasma samples was tested after keeping the samples at […], −20°C and room temperature for 72 h. The stability of deproteinized samples at 10°C in the autosampler was evaluated up to 24 h.

[3] = Stability of stock solution stored at 4°C; format: physicochemical; settings: stock solution in methanol
Description: A stock solution of DPDFT was prepared in methanol at the concentration of 100 mg·mL^−1 and was further diluted in HPLC mobile phase to make working standards. The I.S. stock solution was prepared and diluted to 50.0 μg·mL^−1 working solution with HPLC mobile phase. All the stock solutions were maintained at 4°C until use.
Stability of DPDFT during storage and processing was checked using quality control samples. The DPDFT and I.S. stock solutions were stable for at least 2 months when stored at 4°C. The deviation of the mean test responses was within ±10% of appropriate controls in all stability tests of DPDFT in rat plasma. After three freeze-thaw cycles, the concentration changes of DPDFT were less than 7%. The analyte was stable in the matrices at 4, −20°C and room temperature for 72 h without significant degradation (<8%).

[4] = Stability of DPDFT in rat plasma QC samples (freeze/thaw, storage, autosampler); format: in vitro ADME; settings: 72 h at 4°C
[5] = rats, i.v., 15 mg·kg^−1 (middle)
[6] = rats, i.v., 7.5, 15, and 30 mg·kg^−1

Structure (SMILES): O=C(N[O][Sn]([O]NC(=O)c1ccc(F)cc1F)([c]1ccccc1)[c]1ccccc1)c1ccc(F)cc1F [DPDFT, Di-phenyl-di-(2,4-difluobenzohydroxamato)tin(IV)]
- DPDFT concentration in blood sample ([1]; collected at 3 min after administration of 15 mg·kg^−1, i.v.): 2.4 µg/mL
- A ([1]; rats, i.v., 7.5 mg·kg^−1 (low)): 2.21 ± 0.03 min⁻¹
- B ([1]; rats, i.v., 7.5 mg·kg^−1 (low)): 0.15 ± 0.04 mg/kg
- CL(s) ([1]; rats, i.v., 7.5 mg·kg^−1 (low)): 0.66 ± 0.05
- K 10 (first order elimination from compartment 1) ([1]; rats, i.v., 7.5 mg·kg^−1 (low)): 0.32 ± 0.05 min⁻¹
- K 12 (first order transfer from compartment 1 to compartment 2) ([1]; rats, i.v., 7.5 mg·kg^−1 (low)): 0.26 ± 0.04 min⁻¹
- K 21 (first order transfer from compartment 2 to compartment 1) ([1]; rats, i.v., 7.5 mg·kg^−1 (low)): 0.08 ± 0.004 min⁻¹
- V d ([1]; rats, i.v., 7.5 mg·kg^−1 (low)): 2.13 ± 0.07 L/kg
- t 1/2a (distribution half-life) ([1]; rats, i.v., 7.5 mg·kg^−1 (low)): 1.04 ± 0.01 min
- t 1/2β (elimination half-life) ([1]; rats, i.v., 7.5 mg·kg^−1 (low)): 17.68 ± 2.6 min
- β ([1]; rats, i.v., 7.5 mg·kg^−1 (low)): 0.04 ± 0.003 min⁻¹
- A [1, 5]: 7.94 ± 3.12 min⁻¹
- B [1, 5]: 0.92 ± 0.04 mg/kg
- CL(s) [1, 5]: 0.27 ± 0.02
- K 10 (first order elimination from compartment 1) [1, 5]: 0.24 ± 0.08 min⁻¹
- K 12 (first order transfer from compartment 1 to compartment 2) [1, 5]: 0.38 ± 0.01 min⁻¹
- K 21 (first order transfer from compartment 2 to compartment 1) [1, 5]: 0.11 ± 0.01 min⁻¹
- V d [1, 5]: 1.13 ± 0.08 L/kg
- t 1/2a (distribution half-life) [1, 5]: 1.01 ± 0.01 min
- t 1/2β (elimination half-life) [1, 5]: 19.38 ± 3.6 min
- β [1, 5]: 0.04 ± 0.003 min⁻¹
- A ([1]; rats, i.v., 30 mg·kg^−1 (high)): 22.36 ± 8.12 min⁻¹
- B ([1]; rats, i.v., 30 mg·kg^−1 (high)): 1.85 ± 0.44 mg/kg
- K 10 (first order elimination from compartment 1) ([1]; rats, i.v., 30 mg·kg^−1 (high)): 0.30 ± 0.18 min⁻¹
- K 12 (first order transfer from compartment 1 to compartment 2) ([1]; rats, i.v., 30 mg·kg^−1 (high)): 0.28 ± 0.11 min⁻¹
- K 21 (first order transfer from compartment 2 to compartment 1) ([1]; rats, i.v., 30 mg·kg^−1 (high)): 0.09 ± 0.01 min⁻¹
- V d ([1]; rats, i.v., 30 mg·kg^−1 (high)): 0.62 ± 0.08 L/kg
- t 1/2a (distribution half-life) ([1]; rats, i.v., 30 mg·kg^−1 (high)): 1.12 ± 0.1 min
- t 1/2β (elimination half-life) ([1]; rats, i.v., 30 mg·kg^−1 (high)): 16.81 ± 3.6 min
- β ([1]; rats, i.v., 30 mg·kg^−1 (high)): 0.04 ± 0.003 min⁻¹
- compartment model fitted to concentration-time data [1, 6]: two-compartment model
- difference in pharmacokinetic parameters between male and female rats [1, 6]: no significant differences
- dose linearity of pharmacokinetics ([1]; rats, i.v., from 7.5 to 30 mg/kg): nonlinear process
- deviation of the mean test responses from appropriate controls ([2]; all stability tests in rat plasma): ≤ 10%
- run-time stability (concentration change) ([2]; deproteinized rat plasma, 10°C for up to 24 h): < 6%
- Accuracy = [(Cobs − Cnom)/Cnom] × 100 ([2]; deproteinized rat plasma, autosampler 24 h at 10°C, nominal 0.8 μg·mL^−1): 3.75%
- Observed concentration ± SD ([2]; deproteinized rat plasma, autosampler 24 h at 10°C, nominal 0.8 μg·mL^−1, n = 6): 0.83 ± 0.04 µg/mL
- Accuracy = [(Cobs − Cnom)/Cnom] × 100 ([2]; deproteinized rat plasma, autosampler 24 h at 10°C, nominal 4 μg·mL^−1): −4.25%
- Observed concentration ± SD ([2]; deproteinized rat plasma, autosampler 24 h at 10°C, nominal 4 μg·mL^−1, n = 6): 3.83 ± 0.18 µg/mL
- Accuracy = [(Cobs − Cnom)/Cnom] × 100 ([2]; deproteinized rat plasma, autosampler 24 h at 10°C, nominal 20 μg·mL^−1): −4.05%
- Observed concentration ± SD ([2]; deproteinized rat plasma, autosampler 24 h at 10°C, nominal 20 μg·mL^−1, n = 6): 19.19 ± 1.08 µg/mL
- degradation in the matrices ([2]; rat plasma, 4, −20°C and room temperature for 72 h): < 8%
- Accuracy = [(Cobs − Cnom)/Cnom] × 100 ([2]; rat plasma, 72 h at 4°C, nominal 0.8 μg·mL^−1): 8.75%
- Observed concentration ± SD ([2]; rat plasma, 72 h at 4°C, nominal 0.8 μg·mL^−1, n = 6): 0.87 ± 0.04 µg/mL
- Observed concentration ± SD ([2]; rat plasma, 72 h at 4°C, nominal 4 μg·mL^−1, n = 6): 3.70 ± 0.16 µg/mL
- Accuracy = [(Cobs − Cnom)/Cnom] × 100 ([2]; rat plasma, 72 h at 4°C, nominal 20 μg·mL^−1): 5.70%
- Accuracy = [(Cobs − Cnom)/Cnom] × 100 ([2]; rat plasma, 72 h at room temperature, nominal 0.8 μg·mL^−1): −2.50%
- Observed concentration ± SD ([2]; rat plasma, 72 h at room temperature, nominal 0.8 μg·mL^−1, n = 6): 0.78 ± 0.05 µg/mL
- Accuracy = [(Cobs − Cnom)/Cnom] × 100 ([2]; rat plasma, 72 h at room temperature, nominal 4 μg·mL^−1): −3.25%
- Observed concentration ± SD ([2]; rat plasma, 72 h at room temperature, nominal 4 μg·mL^−1, n = 6): 3.87 ± 0.19 µg/mL
- Observed concentration ± SD ([2]; rat plasma, 72 h at room temperature, nominal 20 μg·mL^−1, n = 6): 19.46 ± 1.19 µg/mL
- Accuracy = [(Cobs − Cnom)/Cnom] × 100 ([2]; rat plasma, 72 h at −20°C, nominal 0.8 μg·mL^−1): −7.50%
- Observed concentration ± SD ([2]; rat plasma, 72 h at −20°C, nominal 0.8 μg·mL^−1, n = 6): 0.74 ± 0.05 µg/mL
- Accuracy = [(Cobs − Cnom)/Cnom] × 100 ([2]; rat plasma, 72 h at −20°C, nominal 4 μg·mL^−1): 5.50%
- Observed concentration ± SD ([2]; rat plasma, 72 h at −20°C, nominal 4 μg·mL^−1, n = 6): 4.22 ± 0.12 µg/mL
- Accuracy = [(Cobs − Cnom)/Cnom] × 100 ([2]; rat plasma, 72 h at −20°C, nominal 20 μg·mL^−1): −4.35%
- Observed concentration ± SD ([2]; rat plasma, 72 h at −20°C, nominal 20 μg·mL^−1, n = 6): 19.13 ± 1.53 µg/mL
- concentration changes after three freeze-thaw cycles ([2]; rat plasma, frozen at −20°C, thawed at room temperature): less than 7%
- Accuracy = [(Cobs − Cnom)/Cnom] × 100 ([2]; rat plasma, three freeze and thaw cycles, nominal 0.8 μg·mL^−1): −5.00%
- Observed concentration ± SD ([2]; rat plasma, three freeze and thaw cycles, nominal 0.8 μg·mL^−1, n = 6): 0.76 ± 0.05 µg/mL
- Accuracy = [(Cobs − Cnom)/Cnom] × 100 ([2]; rat plasma, three freeze and thaw cycles, nominal 4 μg·mL^−1): −5.25%
- Observed concentration ± SD ([2]; rat plasma, three freeze and thaw cycles, nominal 4 μg·mL^−1, n = 6): 3.79 ± 0.13 µg/mL
- Accuracy = [(Cobs − Cnom)/Cnom] × 100 ([2]; rat plasma, three freeze and thaw cycles, nominal 20 μg·mL^−1): −5.15%
- Observed concentration ± SD ([2]; rat plasma, three freeze and thaw cycles, nominal 20 μg·mL^−1, n = 6): 18.97 ± 1.17 µg/mL
- time stock solution was stable [3]: at least 2 months
- Accuracy = [(Cobs − Cnom)/Cnom] × 100 ([4]; nominal 4 μg·mL^−1): −7.50%
- Observed concentration ± SD ([4]; nominal 20 μg·mL^−1, n = 6): 21.14 ± 1.27 µg/mL

From PMC3287010, “Pharmacokinetic Study of Di-Phenyl-Di-(2,4-Difluobenzohydroxamato)Tin(IV): Novel Metal-Based Complex with Promising Antitumor Potential” (Bioinorganic Chemistry and Applications, 2012)
